Where a SMILES comes first, the peptide text is derived from it. Bridges are numbered along the chain shown (N, C = ends). [ ]: non-standard residue; d: D form. The star is where a group is joined. ξ: configuration not given here. Ala(morpholin-4-yl) = N[C@@H](CN1CCOCC1)C(=O)O; Phe(4-COOH) = N[C@@H](Cc1ccc(C(=O)O)cc1)C(=O)O; Bip = N[C@@H](Cc1ccc(-c2ccccc2)cc1)C(=O)O; Phe(4-CN) = N#Cc1ccc(C[C@H](N)C(=O)O)cc1; Phe(3-Me) = Cc1cccc(C[C@H](N)C(=O)O)c1; Ala(cPent) = N[C@@H](CC1CCCC1)C(=O)O; ξLys(N3) = [N-]=[N+]=NCCCCC(N)C(=O)O; Val(3-OH) = CC(C)(O)[C@H](N)C(=O)O; 4Pal = N[C@@H](Cc1ccncc1)C(=O)O; Cha = N[C@@H](CC1CCCCC1)C(=O)O; Cit = NC(=O)NCCC[C@H](N)C(=O)O; Ile(3ξ) = CCC(C)[C@H](N)C(=O)O; Carboxymethyl = O=C(O)C*; Orn = NCCC[C@H](N)C(=O)O; Pra = C#CC[C@H](N)C(=O)O; Dab = NCC[C@H](N)C(=O)O; Dap = NC[C@H](N)C(=O)O; Propargyl = C#CC*
The compounds below were run against T1, human PD-1 / PD-L1-Ig binding on Jurkat cell line over-expressing human PD-1 (Jurkat-PD-1) (Homo sapiens, UniProt Q15116) (assay: Jurkat-PD-1 Cell Binding High-Content Screening Assay (CBA)). Settings: Jurkat HPD1_PDL1 IC50, Jurkat-PD-1 cells, PE-labeled PD-L1-Ig 20 nM final.
T1 construct: expressed in transfected cells; host or cells: Jurkat
T1 sequence (Q15116 25-288): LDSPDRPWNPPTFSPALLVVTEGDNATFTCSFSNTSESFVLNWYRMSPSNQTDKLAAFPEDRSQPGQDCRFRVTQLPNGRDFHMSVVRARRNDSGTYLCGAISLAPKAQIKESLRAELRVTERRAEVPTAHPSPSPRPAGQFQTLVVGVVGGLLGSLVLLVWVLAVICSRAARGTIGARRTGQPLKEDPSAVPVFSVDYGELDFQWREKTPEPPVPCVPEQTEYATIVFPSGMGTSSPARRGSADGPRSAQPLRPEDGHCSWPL
Format: cell-based
In short: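 Binding of fluorescent PD-L1-Ig (phycoerythrin linked via the Ig tag, 20 nM final) to PD-1-overexpressing Jurkat cells was imaged after a 2 h, 37° C compound pretreatment and 1 hour ligand incubation.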

Compound `CC(C)C[C@H]1NC(=O)[C@H](CCCN)NC(=O)[C@H](C(C)C)NC(=O)[C@H](Cc2ccc(-c3ccccc3)cc2)NC(=O)[C@H](CC2CCCC2)NC(=O)[C@H](Cc2c[nH]c3ccccc23)NC(=O)[C@H](CC(=O)O)NC(=O)[C@H](Cc2ccc(OCC(=O)O)cc2)NC(=O)[C@H](CN)NC(=O)CSC[C@@H](C(=O)N[C@@H](C)C(N)=O)NC(=O)[C@H]([C@@H](C)O)NC(=O)[C@H](C(C)C)NC(=O)[C@H](CC2CCCCC2)NC(=O)[C@H](CCN)NC1=O` [Compound 1731] ({CH2CO}-[Dap]Y(Carboxymethyl)DW[Ala(cPent)][Bip]V[Orn][dL][Dab][Cha]VTCA-NH2; thioether N-14) has an IC50 of 13 nM.

Same assay, conditions: Jurkat-PD-1 cells, PE-labeled PD-L1-Ig 20 nM final; read-out: Jurkat HPD1_PDL1 IC50

In order of rising IC50:
1. C#CC[C@H](NC(=O)[C@H](CCN)NC(=O)[C@@H]1CSCC(=O)N[C@@H](CN)C(=O)N[C@@H](Cc2ccc(OCC(=O)O)cc2)C(=O)N[C@@H](CC(=O)O)C(=O)N[C@@H](Cc2cccc(C)c2)C(=O)N[C@@H](Cc2ccc(OCC(=O)O)cc2)C(=O)N[C@@H](Cc2ccc(-c3ccccc3)cc2)C(=O)N[C@@H](Cc2ccc(OCC(=O)O)cc2)C(=O)N[C@@H](CCCN)C(=O)N[C@H](CC(C)C)C(=O)N[C@@H](CCN)C(=O)N[C@@H](CC2CCCCC2)C(=O)N[C@@H](C(C)(C)O)C(=O)N[C@@H](CO)C(=O)N1)C(=O)O [Compound 2316] ({CH2CO}-[Dap]Y(Carboxymethyl)D[Phe(3-Me)]Y(Carboxymethyl)[Bip]Y(Carboxymethyl)[Orn][dL][Dab][Cha][Val(3-OH)]SC[Dab][Pra]-OH; thioether N-14)  6.5 nM
2. CC(C)C[C@H]1NC(=O)[C@H](CCCN)NC(=O)[C@H](CCCNC(N)=O)NC(=O)[C@H](Cc2ccc(-c3ccccc3)cc2)NC(=O)[C@H](C(C)C)NC(=O)[C@H](Cc2c[nH]c3ccccc23)NC(=O)[C@H](CC(=O)O)NC(=O)[C@H](Cc2cccnc2)NC(=O)[C@H](CN)NC(=O)CSC[C@@H](C(=O)N[C@@H](C)C(N)=O)NC(=O)[C@H]([C@@H](C)O)NC(=O)[C@H](C(C)C)NC(=O)[C@H](CC2CCCCC2)NC(=O)[C@H](CCN)NC1=O [Compound 2094]  8.7 nM
3. CC(C)C[C@H]1NC(=O)[C@H](CCCN)NC(=O)[C@H](CCC(=O)O)NC(=O)[C@H](Cc2ccc(-c3ccccc3)cc2)NC(=O)[C@H](C(C)C)NC(=O)[C@H](Cc2cccc(Cl)c2)NC(=O)[C@H](CC(=O)O)NC(=O)[C@H](Cc2ccc(OCC(=O)O)cc2)NC(=O)[C@H](Cc2cccnc2)NC(=O)CSC[C@@H](C(=O)N[C@@H](C)C(N)=O)NC(=O)[C@H]([C@@H](C)O)NC(=O)[C@H](C(C)C)NC(=O)[C@H](CC2CCCCC2)NC(=O)[C@H](CCN)NC1=O [Compound 1501]  10.7 nM
4. CCCC[C@H]1NC(=O)[C@H](CCCN)NC(=O)[C@H](C(C)C)NC(=O)[C@H](Cc2ccc(-c3ccccc3)cc2)NC(=O)[C@H](C(C)C)NC(=O)[C@H](Cc2c[nH]c3ccccc23)NC(=O)[C@H](CC(=O)O)NC(=O)[C@H](Cc2ccc(OCC(=O)O)cc2)NC(=O)[C@H](CN)NC(=O)CSC[C@@H](C(=O)N[C@@H](C)C(N)=O)NC(=O)[C@H]([C@@H](C)O)NC(=O)[C@H](C(C)C)NC(=O)[C@H](CC2CCCCC2)NC(=O)[C@H](CCN)NC1=O [Compound 1692]  10.7 nM
5. Cc1ccccc1C[C@@H]1NC(=O)[C@H](CC(=O)O)NC(=O)[C@H](Cc2ccc(OCC(=O)O)cc2)NC(=O)[C@H](CN)NC(=O)CSC[C@@H](C(=O)N[C@@H](C)C(N)=O)NC(=O)[C@H]([C@@H](C)O)NC(=O)[C@H](C(C)C)NC(=O)[C@H](CC2CCCCC2)NC(=O)[C@H](CCN)NC(=O)[C@@H](CC(C)C)NC(=O)[C@H](CCCN)NC(=O)[C@H](CCC(=O)O)NC(=O)[C@H](Cc2ccc(-c3ccccc3)cc2)NC(=O)[C@H](C(C)C)NC1=O [Compound 2151]  12.1 nM
6. CC(C)C[C@@H]1NC(=O)[C@H](Cc2c[nH]c3ccccc23)NC(=O)[C@H](CC(=O)O)NC(=O)[C@H](Cc2ccncc2)NC(=O)[C@H](Cc2ccc(OCC(=O)O)cc2)NC(=O)CSC[C@@H](C(=O)NCC(N)=O)NC(=O)[C@H](CO)NC(=O)[C@H](C(C)C)NC(=O)[C@H](CC(C)C)NC(=O)[C@H](CC(N)=O)NC(=O)[C@@H](CC(C)C)NC(=O)[C@H](CN)NC(=O)[C@H](C(C)C)NC(=O)[C@H](Cc2ccc(-c3ccccc3)cc2)NC1=O [Compound 1278] ({CH2CO}-Y(Carboxymethyl)[4Pal]DWL[Bip]V[Dap][dL]NLVSCG-NH2; thioether N-14)  27.3 nM
7. CC(C)[C@@H]1NC(=O)[C@H](Cc2c[nH]c3ccccc23)NC(=O)[C@H](CC(=O)O)NC(=O)[C@H](Cc2ccc(C(=O)O)cc2)NC(=O)[C@H](Cc2ccc(OCC(=O)O)cc2)NC(=O)CSC[C@@H](C(=O)N[C@@H](C)C(N)=O)NC(=O)[C@H]([C@@H](C)O)NC(=O)[C@H](C(C)C)NC(=O)[C@H](CC2CCCCC2)NC(=O)[C@H](CCN)NC(=O)[C@@H](Cc2ccc(O)cc2)NC(=O)[C@H](CCCN)NC(=O)[C@H](CCC(=O)O)NC(=O)[C@H](Cc2ccc(-c3ccccc3)cc2)NC1=O [Compound 1449] ({CH2CO}-Y(Carboxymethyl)[Phe(4-COOH)]DWV[Bip]E[Orn][dY][Dab][Cha]VTCA-NH2; thioether N-14)  32.9 nM
8. CCC(C)[C@@H]1NC(=O)[C@H](Cc2ccc(-c3ccccc3)cc2)NC(=O)[C@H](C(C)C)NC(=O)[C@H](Cc2cccc(C)c2)NC(=O)[C@H](CC(=O)O)NC(=O)[C@H](Cc2ccc(C(=O)O)cc2)NC(=O)[C@H](Cc2ccncc2)NC(=O)CSC[C@@H](C(N)=O)NC(=O)[C@H](CC(=O)O)NC(=O)[C@H](C(C)C)NC(=O)[C@H](CC2CCCCC2)NC(=O)[C@H](CCN)NC(=O)[C@@H](CC(C)C)NC(=O)[C@H](CCCN)NC1=O (stereo partly drawn) [Compound 2278] ({CH2CO}-[4Pal][Phe(4-COOH)]D[Phe(3-Me)]V[Bip][Ile(3ξ)][Orn][dL][Dab][Cha]VDC-NH2; thioether N-14)  37.6 nM
9. Cc1cccc(C[C@@H]2NC(=O)[C@H](CC(N)=O)NC(=O)[C@H](Cc3ccc(OCC(=O)O)cc3)NC(=O)[C@H](CN3CCOCC3)NC(=O)CSC[C@@H](C(=O)N[C@@H](CCN)C(N)=O)NC(=O)[C@H](CCCN)NC(=O)[C@H](C(C)C)NC(=O)[C@H](CC3CCCCC3)NC(=O)[C@H](CCN)NC(=O)[C@@H](CC(C)C)NC(=O)[C@H](CCCN)NC(=O)[C@H](CCCN)NC(=O)[C@H](Cc3ccc(-c4ccccc4)cc3)NC(=O)[C@H](Cc3ccc(C(=O)O)cc3)NC2=O)c1 [Example 2725] ({CH2CO}-[Ala(morpholin-4-yl)]Y(Carboxymethyl)N[Phe(3-Me)][Phe(4-COOH)][Bip][Orn][Orn][dL][Dab][Cha]V[Orn]C[Dab]-NH2; thioether N-14)  48.1 nM
10. C#CCOc1ccc(C[C@@H]2NC(=O)[C@H](CN)NC(=O)CSC[C@@H](C(=O)NC(CCCCN=[N+]=[N-])C(N)=O)NC(=O)[C@H]([C@@H](C)O)NC(=O)[C@H](C(C)C)NC(=O)[C@H](CC3CCCCC3)NC(=O)[C@H](CCN)NC(=O)[C@@H](CC(C)C)NC(=O)[C@H](CCCN)NC(=O)[C@H](CCC(=O)O)NC(=O)[C@H](Cc3ccc(-c4ccccc4)cc3)NC(=O)[C@H](C(C)C)NC(=O)[C@H](Cc3c[nH]c4ccccc34)NC(=O)[C@H](CC(=O)O)NC2=O)cc1 (stereo partly drawn) [Compound 1538] ({CH2CO}-[Dap]Y(Propargyl)DWV[Bip]E[Orn][dL][Dab][Cha]VTC[ξLys(N3)]-NH2; thioether N-14)  135 nM
11. CC(C)C[C@H]1NC(=O)[C@H](CCCN)NC(=O)[C@H](CCC(=O)O)NC(=O)[C@H](Cc2ccc(-c3ccccc3)cc2)NC(=O)[C@H](C(C)C)NC(=O)[C@H](Cc2c[nH]c3ccc(C#N)cc23)NC(=O)[C@H](CC(=O)O)NC(=O)[C@H](Cc2ccc(OCC(=O)O)cc2)NC(=O)[C@H](CN)NC(=O)CSC[C@@H](C(=O)N[C@@H](C)C(N)=O)NC(=O)[C@H]([C@@H](C)O)NC(=O)[C@H](C(C)C)NC(=O)[C@H](CC2CCCCC2)NC(=O)[C@H](CCN)NC1=O [Compound 2143]  139 nM
12. Cc1cccc(C[C@@H]2NC(=O)[C@H](CC(N)=O)NC(=O)[C@H](Cc3ccc(C(=O)O)cc3)NC(=O)[C@H](CN3CCOCC3)NC(=O)CSC[C@@H](C(=O)N[C@@H](CCN)C(N)=O)NC(=O)[C@H](CCCN)NC(=O)[C@H](C(C)C)NC(=O)[C@H](CC3CCCCC3)NC(=O)[C@H](CCN)NC(=O)[C@@H](CC(C)C)NC(=O)[C@H](CCCN)NC(=O)[C@H](CCCN)NC(=O)[C@H](Cc3ccc(-c4ccccc4)cc3)NC(=O)[C@H](Cc3ccc(C(=O)O)cc3)NC2=O)c1 [Example 2727] ({CH2CO}-[Ala(morpholin-4-yl)][Phe(4-COOH)]N[Phe(3-Me)][Phe(4-COOH)][Bip][Orn][Orn][dL][Dab][Cha]V[Orn]C[Dab]-NH2; thioether N-14)  348 nM
13. CC(C)C[C@H]1NC(=O)[C@H](CCCN)NC(=O)[C@H](CCC(=O)O)NC(=O)[C@H](Cc2ccc(-c3ccccc3)cc2)NC(=O)[C@H](C(C)C)NC(=O)[C@H](Cc2c[nH]c3ccccc23)NC(=O)[C@H](CCC(=O)O)NC(=O)[C@H](Cc2ccc(OCC(=O)O)cc2)NC(=O)[C@H](CN)NC(=O)CSC[C@@H](C(=O)N[C@@H](C)C(N)=O)NC(=O)[C@H]([C@@H](C)O)NC(=O)[C@H](C(C)C)NC(=O)[C@H](CC2CCCCC2)NC(=O)[C@H](CCN)NC1=O [Compound 2198] ({CH2CO}-[Dap]Y(Carboxymethyl)EWV[Bip]E[Orn][dL][Dab][Cha]VTCA-NH2; thioether N-14)  803 nM
14. CC(C)C[C@H]1NC(=O)[C@H](CCCN)NC(=O)[C@H](CCCNC(N)=O)NC(=O)[C@H](Cc2ccc(-c3ccccc3)cc2)NC(=O)[C@H](C(C)C)NC(=O)[C@H](Cc2c[nH]c3ccccc23)NC(=O)[C@H](CC(=O)O)NC(=O)[C@H](Cc2ccc(OCC(=O)O)cc2)NC(=O)[C@H](CN)NC(=O)CSC[C@@H](C(=O)N[C@@H](C)C(N)=O)NC(=O)[C@H]([C@@H](C)O)NC(=O)[C@H](C(C)C)NC(=O)[C@H](Cc2ccc(C#N)cc2)NC(=O)[C@H](CCN)NC1=O [Compound 1366] ({CH2CO}-[Dap]Y(Carboxymethyl)DWV[Bip][Cit][Orn][dL][Dab][Phe(4-CN)]VTCA-NH2; thioether N-14)  858 nM

Source: patent publication US20250163104A1, “MACROCYCLIC IMMUNOMODULATORS” (priority 2021, published 2025)
